Data on one molecule can be found in patent US12527849B2, “Apparatus for determining administration form of a composition of an engineered virus-based nanoparticle for a treatment of an autoimmune condition” (Diamante Srl, priority 2021, dated 2026).

Common to all, as to type: in vivo
One assay has as its system CD25+ Foxp3+ cells. Kind of assay: Percentage of CD25+ Foxp3+ cells in lymph nodes of CIA mice. The following applies: day 60 after immunization, i.p. treatment, mean (SEM), n=3. The source says: With continued reference to FIG. 1, in some embodiments, administration 116 may be done to an animal. As a non-limiting example, the animal may include a mouse, a fish, a rabbit, human, and the like. As a non-limiting example, administration 116 of composition of the engineered virus-based nanoparticle for a treatment of an autoimmune condition may be done to dilute, brown, and non-agouti (DBA) mice based on their susceptibility to collagen-induced arthritis (CIA). Female DBA/1 mice 6 to 8 weeks of age may be maintained under specific pathogen-free conditions. CIA may be induced by the intradermal tail base injection of 100 μg of chicken type II collagen (Sigma-Aldrich) as previously described. […] CIA may be assessed using a macroscopic score system based on the visual identification of arthritic limbs. The clinical severity of arthritis may be evaluated as follows: Each mouse may be inspected every 2 to 3 days for three different parameters: (i) swelling of the hind ankle and foot, measured with calipers; (ii) erythema of each leg; and (iii) swelling of the fingers. The RA index for each mouse was expressed as the mean of the three scores from the individual parameters. At the end of the experiment (60 days), we determined the proportion of CD25+Foxp3+ cells in the lymph nodes and measured cytokine titers in the lymph nodes, joints, and serum. […]

The subject of another assay is MCP-1. Kind of assay: Pro-inflammatory cytokines in sera of CIA Collagen mice (ELISA, day 58): MCP-1. As to conditions: Dexamethasone oral 1 mg/kg, 20 times between day 28 and 57. How it is done:
(§1) Critical administration 124 disclosed herein is further described below. Q5D represents administration 5 days a part. TBSV·pLIp1 and wt TBSV shown in Table 1 may include liquid form that are not sterile and stored in −20° C. TBSV·pLIp1 may be given at the dose of 50 μG/100 μL Male DBA/1J mice (8 weeks; Envigo, Italy) may be used for these studies. Mice may be housed in individual cages (two for each group) and maintained under a 12:12 light-dark cycle at 21° C.±1° C. and 50%±5% humidity. The animals may be acclimated to their environment for 1 week and had ad libitum access to tap water and standard rodent diet. All animal experiments may be complied with regulations in Italy (D.M. 116192), Europe (O.J of E.C. L 358/112/18/1986), and the United States (Animal Welfare Assurance Number A5594-01, Department of Health and Human Services, USA). […] Arthritis was assessed by using qualitative severity score system and hind paw volume (mL) measured by a plethysmometer on day 20, 22, 24, 26, 28, 30, 32, 34, 36, 38, 40, 42, 44, 46 48, 50, 52, 54, 56 and 58. Body weight was recorded on day 0, 6, 13, 16, 18, 20, 22, 24, 26, 28, 30, 32, 34, 36, 38, 40, 42, 44, 46, 50, 52, 54, 56 and 58. […]

A further assay relates to IFN-γ. Kind of assay: Pro-inflammatory cytokines in sera of CIA Collagen mice (ELISA, day 58): IFN-γ. As to conditions: Dexamethasone oral 1 mg/kg, 20 times between day 28 and 57. How it is done: as §1

Regarding `C[C@@H]1C[C@H]2[C@@H]3CCC4=CC(=O)C=C[C@]4(C)[C@@]3(F)[C@@H](O)C[C@]2(C)[C@@]1(O)C(=O)CO` [Dexamethasone, dexamethasone], the “% CD25^+/Foxp3^+” value in the assay on CD25+ Foxp3+ cells is on record as 3.26 (0.84) %. In addition, the “MCP-1, % of reduction vs CIA Collagen” value with MCP-1 is on record as 30.57%. For the same molecule, the “IFN-γ, % of reduction vs CIA Collagen” value in the assay on IFN-γ stood at 37.39%.
